{"source": "patent US20230349922A1", "about": "“H2 Blockers Targeting Liver Macrophages for the Prevention and Treatment of Liver Disease and Cancer” (Université de Strasbourg, priority 2020, published 2023)", "test_system": "patient-derived HCC tumor spheroids", "assay": "Cell viability (ATP, CellTiter-Glo) of patient-derived HCC tumorspheroids", "format": "cell-based, human", "settings": "nizatidine 50 μM, 4 days, ATP levels, compared to DMSO; 6 patients", "description": "Patient-Derived HCC Tumor Spheroids. Tumorspheroids were generated from liver tissues from HCC patients undergoing surgical resection and dissociated using the Human Tumor Dissociation Kit. Total cell populations including epithelical (i.e., cancer cells/hepatocytes) and NPCs were used to generate multicellular tumorspheroids in Corning® 96-well Black/Clear Bottom Low Flange Ultra-Low Attachment Microplates (Corning). After 48 hours, HCC-derived spheroids were treated with nizatidine 50 μM, sorafenib 10 μM or DMSO vehicle control for 4 days. Fresh medium containing DMSO or drugs was added every day. Cell viability was assessed using CellTiter-Glo® (Luminescent Cell Viability Assay), according to manufacturer's instruction."}
{"smiles": "CNC(=C[N+](=O)[O-])NCCSCc1csc(CN(C)C)n1", "note": "[Nizatidine, N-[2-[[[2-[(dimethylamino)methyl]-4-thizaolyl]methyl]thio]ethyl]-N′-methyl-2-nitro-1,1-ethene-diamine]", "values": [{"measurement": "tumor spheroid viability", "result": "significant decrease of tumor spheroid viability in 4 out of 6 patients"}]}
